The target of assay [1] is T1, SMARCA2-HiBiT HeLa cells (protein which is expressed from the SMARCA2 gene) (Homo sapiens, UniProt P51531).
T1 construct: protein which is expressed from the SMARCA2 and SMARCA4 genes; host or cells: HeLa (SMARCA2-HiBiT engineered line)
Nature of the assay: SMARCA2 degradation assay (HiBiT-fusion HeLa cell line, 24 h, luminescence). The format is cell-based. The method, then: (§1) SMARCA2 and SMARCA4 Degradation Assay
(§2) Degradation of protein which is expressed from the SMARCA2 and SMARCA4 genes was monitored using engineered HiBiT-fusion HeLa cell lines from Promega. In brief, 384-well white opaque plates (Greiner) were seeded with SMARCA2-HiBiT or SMARCA4-HiBiT HeLa cells at 8,000 cells/well and incubated overnight at 37° C. to allow cell attachment. After overnight incubation, test compounds were added in a 10-point dilution series (typically 10 μM to 300 pM) using a TECAN D300e Digital Dispenser, and plates were subsequently incubated for 24 hours at 37° C. 24-hours post-treatment, protein levels were quantified with the addition of HiBiT lytic buffer, LgBiT protein, and HiBiT substrate, according to manufacturer's specifications. Plates were incubated on an orbital plate shaker for 10 minutes at room temperature. Resulting luminescent values were read out using a ClarioStar plate reader and used to construct dose-response curves and calculation of degradation DC50s (GraphPad Prism).
(§3) Activity of the tested compounds is provided in Table 4 below as follows: A=DC50<0.050 μM; B=0.05 μM<DC50<0.50 μM; C=<0.5 μM<DC50<5.0 μM; D=DC50>5.0 μM. For SMARCA2 and SMARCA4 degradation activity @1 μM, +++=>70%; ++=30-70%; +=<30%.

The target of assay [2] is T2, SMARCA4-HiBiT HeLa cells (protein which is expressed from the SMARCA4 gene) (Homo sapiens, UniProt P51532).
T2 construct: protein which is expressed from the SMARCA2 and SMARCA4 genes; host or cells: HeLa (SMARCA4-HiBiT engineered line)
Briefly: SMARCA4 degradation assay (HiBiT-fusion HeLa cell line, 24 h, luminescence). In kind it is cell-based. How it is done: as §1, §2, §3
(The HiBiT peptide binds its large partner to form an active luciferase.)

Bounds are passed on as bounds.

T2 sequence (P51532 whole entry): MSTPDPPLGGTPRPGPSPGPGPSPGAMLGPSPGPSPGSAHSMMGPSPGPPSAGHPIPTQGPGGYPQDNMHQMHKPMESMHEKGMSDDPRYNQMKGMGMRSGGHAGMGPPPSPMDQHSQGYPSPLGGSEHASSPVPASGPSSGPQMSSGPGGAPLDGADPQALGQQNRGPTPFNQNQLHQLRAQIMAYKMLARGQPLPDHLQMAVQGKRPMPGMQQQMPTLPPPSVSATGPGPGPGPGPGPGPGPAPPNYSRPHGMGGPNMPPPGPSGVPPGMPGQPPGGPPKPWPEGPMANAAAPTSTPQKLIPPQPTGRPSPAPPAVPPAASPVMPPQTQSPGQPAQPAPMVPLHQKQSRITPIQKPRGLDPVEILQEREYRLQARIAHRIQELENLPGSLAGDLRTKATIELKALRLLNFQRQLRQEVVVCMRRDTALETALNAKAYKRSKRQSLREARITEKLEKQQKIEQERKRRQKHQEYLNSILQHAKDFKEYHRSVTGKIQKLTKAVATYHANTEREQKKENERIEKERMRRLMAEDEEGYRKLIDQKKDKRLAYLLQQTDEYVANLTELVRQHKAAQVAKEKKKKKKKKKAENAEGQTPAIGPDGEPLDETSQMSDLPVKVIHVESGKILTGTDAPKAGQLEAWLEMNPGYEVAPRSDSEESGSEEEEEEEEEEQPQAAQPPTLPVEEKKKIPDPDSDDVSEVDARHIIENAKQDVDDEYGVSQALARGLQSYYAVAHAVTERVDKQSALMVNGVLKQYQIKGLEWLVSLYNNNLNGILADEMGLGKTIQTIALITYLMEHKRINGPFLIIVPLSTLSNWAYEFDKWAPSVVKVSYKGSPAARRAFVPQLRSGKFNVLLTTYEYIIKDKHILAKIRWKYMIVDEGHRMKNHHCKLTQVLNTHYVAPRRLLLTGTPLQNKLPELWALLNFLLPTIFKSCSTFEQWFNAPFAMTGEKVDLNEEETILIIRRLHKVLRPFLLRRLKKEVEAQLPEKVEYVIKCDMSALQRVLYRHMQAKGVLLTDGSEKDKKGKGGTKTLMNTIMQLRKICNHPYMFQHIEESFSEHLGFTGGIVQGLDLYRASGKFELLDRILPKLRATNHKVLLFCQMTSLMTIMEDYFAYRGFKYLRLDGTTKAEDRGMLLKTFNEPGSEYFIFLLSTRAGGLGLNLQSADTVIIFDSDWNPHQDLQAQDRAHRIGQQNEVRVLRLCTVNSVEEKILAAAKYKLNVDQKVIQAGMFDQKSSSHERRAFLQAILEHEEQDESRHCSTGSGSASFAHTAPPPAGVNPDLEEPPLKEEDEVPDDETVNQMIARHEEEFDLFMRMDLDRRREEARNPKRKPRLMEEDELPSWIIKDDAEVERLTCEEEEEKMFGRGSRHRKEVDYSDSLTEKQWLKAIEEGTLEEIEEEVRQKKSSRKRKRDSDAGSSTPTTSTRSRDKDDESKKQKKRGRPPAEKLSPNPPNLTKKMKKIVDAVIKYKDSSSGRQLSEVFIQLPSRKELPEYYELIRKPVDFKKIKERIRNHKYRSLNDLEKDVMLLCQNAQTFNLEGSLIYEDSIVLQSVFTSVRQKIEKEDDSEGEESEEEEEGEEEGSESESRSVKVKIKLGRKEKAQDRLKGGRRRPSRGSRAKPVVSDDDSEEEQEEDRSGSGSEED
T1 sequence (P51531 whole entry): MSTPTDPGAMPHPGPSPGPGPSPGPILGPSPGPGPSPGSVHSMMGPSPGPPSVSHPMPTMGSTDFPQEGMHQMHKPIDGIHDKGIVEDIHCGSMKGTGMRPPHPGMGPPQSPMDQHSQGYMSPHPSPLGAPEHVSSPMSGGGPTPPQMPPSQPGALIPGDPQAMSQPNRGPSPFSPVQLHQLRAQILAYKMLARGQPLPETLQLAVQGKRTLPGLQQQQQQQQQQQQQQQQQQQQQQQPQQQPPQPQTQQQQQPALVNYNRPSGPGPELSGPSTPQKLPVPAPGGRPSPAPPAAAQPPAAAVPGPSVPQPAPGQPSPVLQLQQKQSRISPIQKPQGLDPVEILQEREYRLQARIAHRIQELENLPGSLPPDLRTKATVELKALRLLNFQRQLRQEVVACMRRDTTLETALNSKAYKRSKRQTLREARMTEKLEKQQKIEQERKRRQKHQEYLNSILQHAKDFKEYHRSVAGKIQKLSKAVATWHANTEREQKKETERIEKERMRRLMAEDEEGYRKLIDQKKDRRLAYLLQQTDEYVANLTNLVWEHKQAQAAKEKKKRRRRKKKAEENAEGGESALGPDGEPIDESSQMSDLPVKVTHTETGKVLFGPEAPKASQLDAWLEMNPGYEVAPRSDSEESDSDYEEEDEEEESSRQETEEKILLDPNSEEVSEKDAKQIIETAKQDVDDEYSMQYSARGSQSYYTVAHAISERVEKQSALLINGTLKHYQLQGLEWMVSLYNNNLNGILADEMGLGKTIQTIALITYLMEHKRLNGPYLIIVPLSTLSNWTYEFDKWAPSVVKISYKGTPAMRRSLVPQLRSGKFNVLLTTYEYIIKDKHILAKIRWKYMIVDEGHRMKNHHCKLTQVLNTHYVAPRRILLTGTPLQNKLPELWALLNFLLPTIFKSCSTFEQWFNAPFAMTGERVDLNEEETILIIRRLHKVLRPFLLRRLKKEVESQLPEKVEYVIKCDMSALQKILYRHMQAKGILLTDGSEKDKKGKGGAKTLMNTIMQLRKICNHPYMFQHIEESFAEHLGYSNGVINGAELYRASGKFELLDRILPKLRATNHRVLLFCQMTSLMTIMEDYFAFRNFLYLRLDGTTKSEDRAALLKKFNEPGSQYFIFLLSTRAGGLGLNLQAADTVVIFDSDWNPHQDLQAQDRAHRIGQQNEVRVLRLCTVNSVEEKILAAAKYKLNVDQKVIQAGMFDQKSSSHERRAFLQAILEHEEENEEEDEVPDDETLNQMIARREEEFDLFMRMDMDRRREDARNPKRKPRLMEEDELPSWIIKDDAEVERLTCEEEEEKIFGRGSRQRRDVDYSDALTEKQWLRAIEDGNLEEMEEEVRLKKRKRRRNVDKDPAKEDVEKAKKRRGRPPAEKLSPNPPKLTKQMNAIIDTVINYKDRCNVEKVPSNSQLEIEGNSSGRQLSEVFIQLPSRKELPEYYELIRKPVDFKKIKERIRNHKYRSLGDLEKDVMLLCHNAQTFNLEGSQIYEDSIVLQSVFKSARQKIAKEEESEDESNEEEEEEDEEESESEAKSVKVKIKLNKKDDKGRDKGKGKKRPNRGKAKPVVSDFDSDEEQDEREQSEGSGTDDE

One may read the DC50 as the concentration giving 50% degradation. By inhibition is commonly meant the change of the read-out against control, counted positive when it falls. Turning to `Nc1nnc(-c2ccccc2O)cc1N1CC2CC1CN(c1ccnc(C#CCNC(=O)c3cc4ncccn4n3)n1)C2` (stereo not shown) [Compound P-17, N-(3-(4-(6-(3-amino-6-(2-hydroxyphenyl)pyridazin-4-yl)-3,6-diazabicyclo[3.2.1]octan-3-yl)pyrimidin-2-yl)prop-2-yn-1-yl)pyrazolo[1,5-a]pyrimidine-2-carboxamide], in assay [1], the 50% degradation concentration (DC50) is 500 to 5000 nM and the “SMARCA2 % Degradation @ 1 μM” value is reported as “++ (++=30-70%)”. In assay [2], this compound had a DC50 of 500 to 5000 nM and an inhibition at 1 µM of 30 to 70%.

Consider `Nc1nnc(-c2ccccc2O)cc1N1CC2C1CCN2c1ccnc(C#CCNC(=O)c2cc3ncccn3n2)n1` (stereo not shown) [Compound P-18, N-(3-(4-(6-(3-amino-6-(2-hydroxyphenyl)pyridazin-4-yl)-2,6-diazabicyclo[3.2.0]heptan-2-yl)pyrimidin-2-y1)prop-2-yn-1-yl)pyrazolo[1,5-a]pyrimidine-2-carboxamide], for which, in assay [1], the DC50 was in the range of 500 to 5000 nM and the “SMARCA2 % Degradation @ 1 μM” value was “+ (+=<30%)”. In assay [2], the DC50 was in the range of 50 to 500 nM and the inhibition at 1 µM lay within 30 to 70%.

Turning to `CC1CCN(c2ccnc(C#CCNC(=O)c3cc4ncccn4n3)n2)CCN1c1cc(-c2ccccc2O)nnc1N` (stereo not shown) [Compound P-19, N-(3-(4-(4-(3-amino-6-(2-hydroxyphenyl)pyridazin-4-yl)-5-methyl-1,4-diazepan-1-yl)pyrimidin-2-yl)prop-2-yn-1-yl)pyrazolo[1,5-a]pyrimidine-2-carboxamide], in assay [1], the half-maximal degradation concentration (DC50) lay within 500 to 5000 nM and the “SMARCA2 % Degradation @ 1 μM” value is listed as “++ (++=30-70%)”. In assay [2], this compound came in with a DC50 of 500 to 5000 nM and an inhibition at 1 µM of 30 to 70%.

Consider `CC1CN(c2cc(-c3ccccc3O)nnc2N)CCCN1c1ccnc(C#CCNC(=O)c2cc3ncccn3n2)n1` (stereo not shown) [Compound P-20, N-(3-(4-(4-(3-amino-6-(2-hydroxyphenyl)pyridazin-4-yl)-2-methyl-1,4-diazepan-1-yl)pyrimidin-2-yl)prop-2-yn-1-yl)pyrazolo[1,5-a]pyrimidine-2-carboxamide], for which, in assay [1], the DC50 fell in the range of 50 to 500 nM and the “SMARCA2 % Degradation @ 1 μM” value is “++ (++=30-70%)”. In assay [2], this compound yielded a DC50 of 50 to 500 nM and an inhibition at 1 µM of 30 to 70%.

For `Cn1ccc(NCC#Cc2nccc(N3CCCN(c4cc(-c5ccccc5O)nnc4N)CC3)n2)n1` [Compound P-21, 2-(6-amino-5-(4-(2-(3-((1-methyl-1H-pyrazol-3-yl)amino)prop-1-yn-1-yl)pyrimidin-4-yl)-1,4-diazepan-1-yl)pyridazin-3-yl)phenol], in assay [1], the DC50 was in the range of 50 to 500 nM and the “SMARCA2 % Degradation @ 1 μM” value is “++ (++=30-70%)”. In assay [2], the half-maximal degradation concentration (DC50) fell in the range of 50 to 500 nM and the inhibition at 1 µM lay within 30 to 70%.

For the compound `Nc1nnc(-c2ccccc2O)cc1N1C2CCC1CN(c1ccnc(C#CCCNC(=O)c3cc4ncccn4n3)n1)C2` [Compound P-22, N-(4-(4-(8-(3-amino-6-(2-hydroxyphenyl)pyridazin-4-yl)-3,8-diazabicyclo[3.2.1]octan-3-yl)pyrimidin-2-yl)but-3-yn-1-yl)pyrazolo[1,5-a]pyrimidinc-2-carboxamide], in assay [1], the 50% degradation concentration (DC50) was in the range of 500 to 5000 nM and the “SMARCA2 % Degradation @ 1 μM” value is given as “++ (++=30-70%)”. In addition, in assay [2], the 50% degradation concentration (DC50) fell in the range of 500 to 5000 nM and the inhibition at 1 µM is 30 to 70%.

Consider `Nc1nnc(-c2ccccc2O)cc1N1CCCN(c2ccnc(C#CCCNC(=O)c3cc4ncccn4n3)n2)CC1` [Compound P-23, N-(4-(4-(4-(3-amino-6-(2-hydroxyphenyl)pyridazin-4-yl)-1,4-diazepan-1-yl)pyrimidin-2-yl)but-3-yn-1-yl)pyrazolo[1,5-a]pyrimidine-2-carboxamide], for which, in assay [1], the DC50 fell in the range of 50 to 500 nM and the “SMARCA2 % Degradation @ 1 μM” value was “++ (++=30-70%)”. Further, in assay [2], the half-maximal degradation concentration (DC50) lay in the range of 50 to 500 nM and the inhibition at 1 µM was in the range of 30 to 70%.

As for `CN(CC#Cc1nccc(N2CCCN(c3cc(-c4ccccc4O)nnc3N)CC2)n1)C(=O)c1cc2ncccn2n1` [Compound P-24, N-(3-(4-(4-(3-amino-6-(2-hydroxyphenyl)pyridazin-4-yl)-1,4-diazepan-1-yl)pyrimidin-2-yl)prop-2-yn-1-yl)-N-methylpyrazolo[1,5-a]pyrimidine-2-carboxamide], in assay [1], the DC50 was less than 50 nM and the “SMARCA2 % Degradation @ 1 μM” value was “+++ (+++=>70%)”. In assay [2], the DC50 was less than 50 nM and the inhibition at 1 µM was more than 70%.

For `Nc1nnc(-c2ccccc2O)cc1N1C[C@H]2C[C@@H]1CN2c1ccnc(C#CCNC(=O)c2cc3ncccn3n2)n1` [Compound P-25, N-(3-(4-((1R,4R)-5-(3-amino-6-(2-hydroxyphenyl)pyridazin-4-yl)-2,5-diazabicyclo[2.2.1]heptan-2-yl)pyrimidin-2-yl)prop-2-yn-1-yl)pyrazolo[1,5-a]pyrimidine-2-carboxamide], in assay [1], the DC50 is 50 to 500 nM and the “SMARCA2 % Degradation @ 1 μM” value is “+++ (+++=>70%)”. In assay [2], this compound gave a half-maximal degradation concentration (DC50) of 50 to 500 nM and an inhibition at 1 µM of more than 70%.

Consider `Nc1nnc(-c2ccccc2O)cc1N1CCCN(c2ccnc(C#CCNc3nc4ccccc4o3)n2)CC1` [Compound P-26, 2-(6-amino-5-(4-(2-(3-(benzo[d]oxazol-2-ylamino)prop-1-yn-1-yl)pyrimidin-4-yl)-1,4-diazepan-1-yl)pyridazin-3-yl)phenol], for which, in assay [1], the DC50 lay in the range of 50 to 500 nM and the “SMARCA2 % Degradation @ 1 μM” value was “+++ (+++=>70%)”. In assay [2], this compound gave a DC50 of 50 to 500 nM and an inhibition at 1 µM of more than 70%.

With `CC1CN(c2ccnc(C#CCNC(=O)c3cc4ncccn4n3)n2)CCN(c2cc(-c3ccccc3O)nnc2N)C1` (stereo not shown) [Compound P-27, N-(3-(4-(4-(3-amino-6-(2-hydroxyphenyl)pyridazin-4-yl)-6-methyl-1,4-diazepan-1-yl)pyrimidin-2-yl)prop-2-yn-1-yl)pyrazolo[1,5-a]pyrimidine-2-carboxamide], in assay [1], the DC50 is 50 to 500 nM and the “SMARCA2 % Degradation @ 1 μM” value is listed as “+++ (+++=>70%)”. In assay [2], the 50% degradation concentration (DC50) was 50 to 500 nM and the inhibition at 1 µM was more than 70%.

`Nc1nnc(-c2ccccc2O)cc1N1CCN(c2ccnc(C#CCNC(=O)c3cc4ncccn4n3)n2)C2CC21` (stereo not shown) [Compound P-28, N-(3-(4-(5-(3-amino-6-(2-hydroxyphenyl)pyridazin-4-yl)-2,5-diazabicyclo[4.1.0]heptan-2-yl)pyrimidin-2-yl)prop-2-yn-1-yl)pyrazolo[1,5-a]pyrimidine-2-carboxamide]: in assay [1], the DC50 lay in the range of 50 to 500 nM and the “SMARCA2 % Degradation @ 1 μM” value is listed as “++ (++=30-70%)”. In assay [2], this compound had a DC50 of less than 50 nM and an inhibition at 1 µM of 30 to 70%.

In the case of `CC1CN(c2ccnc(C#CCNC(=O)c3cc4ncccn4n3)n2)CCCN1c1cc(-c2ccccc2O)nnc1N` (stereo not shown) [Compound P-29, N-(3-(4-(4-(3-amino-6-(2-hydroxyphenyl)pyridazin-4-yl)-3-methyl-1,4-diazepan-1-yl)pyrimidin-2-yl)prop-2-yn-1-yl)pyrazolo[1,5-a]pyrimidine-2-carboxamide], in assay [1], the DC50 was 50 to 500 nM and the “SMARCA2 % Degradation @ 1 μM” value was “+++ (+++=>70%)”. In assay [2], this compound displayed a half-maximal degradation concentration (DC50) of 50 to 500 nM and an inhibition at 1 µM of more than 70%.

With `Nc1nnc(-c2ccccc2O)cc1N1C[C@@H]2C[C@H]1CN2c1ccnc(C#CCNC(=O)c2cc3ncccn3n2)n1` [Compound P-30, N-(3-(4-((1S,4S)-5-(3-amino-6-(2-hydroxyphenyl)pyridazin-4-yl)-2,5-diazabicyclo[2.2.1]heptan-2-yl)pyrimidin-2-yl)prop-2-yn-1-yl)pyrazolo[1,5-a]pyrimidine-2-carboxamide], in assay [1], the DC50 fell in the range of 500 to 5000 nM and the “SMARCA2 % Degradation @ 1 μM” value was “++ (++=30-70%)”. In assay [2], this compound came in with a 50% degradation concentration (DC50) of 500 to 5000 nM and an inhibition at 1 µM of 30 to 70%.

Consider `Nc1nnc(-c2ccccc2O)cc1N1CC2(CCN(c3ccnc(C#CCNC(=O)c4cc5ncccn5n4)n3)CC2)C1` [Compound P-31, N-(3-(4-(2-(3-amino-6-(2-hydroxyphenyl)pyridazin-4-yl)-2,7-diazaspiro[3.5]nonan-7-yl)pyrimidin-2-yl)prop-2-yn-1-yl)pyrazolo[1,5-a]pyrimidine-2-carboxamide], for which, in assay [1], the half-maximal degradation concentration (DC50) was in the range of 50 to 500 nM and the “SMARCA2 % Degradation @ 1 μM” value is listed as “++ (++=30-70%)”. Further, in assay [2], the half-maximal degradation concentration (DC50) is 50 to 500 nM and the inhibition at 1 µM is 30 to 70%.

`Nc1nnc(-c2ccccc2O)cc1N1CCC2(CCN(c3ccnc(C#CCNC(=O)c4cc5ncccn5n4)n3)C2)CC1` [Compound P-32, N-(3-(4-(8-(3-amino-6-(2-hydroxyphenyl)pyridazin-4-yl)-2,8-diazaspiro[4.5]decan-2-yl)pyrimidin-2-yl)prop-2-yn-1-yl)pyrazolo[1,5-a]pyrimidine-2-carboxamide]: in assay [1], the DC50 was 50 to 500 nM and the “SMARCA2 % Degradation @ 1 μM” value was “++ (++=30-70%)”. In assay [2], the 50% degradation concentration (DC50) was in the range of 50 to 500 nM and the inhibition at 1 µM was in the range of 30 to 70%.

Source of the values: patent US20260265238A1, “COMPOUNDS AND PHARMACEUTICAL COMPOSITIONS THAT DEGRADE SWI/SNF-RELATED MATRIX-ASSOCIATED ACTIN-DEPENDENT REGULATOR OF CHROMATIN SUBFAMILY A” (Plexium, Inc., priority 2023, published 2026).
